From US11225503B2, “Crystobactamides” (HELMHOLTZ-ZENTRUM FÜR INFEKTIONSFORSCHUNG GMBH, priority 2013, dated 2022) come the findings set out here.

pIC50: −log10 of the molar value. In brackets after ≈: the same amount, converted by molar mass. A value given as a limit tells only on which side of the number the result lay.

The subject of assay [1] is E. coli strain WT-4 M2.1 (parC mutation). Nature of the assay: Susceptibility of mutant E. coli strains, MIC. Format: cell-based. As to conditions: Escherichia coli. An excerpt: Cystobactamides were screened using a panel of E. coli strains with typical mutations in gyrA and parC genes (Table 11).
(§1) Bacterial wildtype strains used in susceptibility assays were either part of our strain collection or purchased from the German Collection of Microorganisms and Cell Cultures (DSMZ) or from the American Type Culture Collection (ATCC). E. coli strain WT^[6] and E. coli mutants were kindly provided by Prof. Dr. P. Heisig, Pharmaceutical Biology and Microbiology, University of Hamburg.
(§2) MIC values were determined in microdilution assays. Overnight cultures were diluted in the appropriate growth medium to achieve an inoculum of 10^4-10^6 cfu/mL. Yeasts were grown in Myc medium (1% phytone peptone, 1% glucose, 50 mM HEPES, pH 7.0), S. pneumonia and E. faecalis in tryptic soy broth (TSB: 1.7% peptone casein, 0.3% peptone soymeal, 0.25% glucose, 0.5% NaCl, 0.25% K2HPO4; pH 7.3); M. smegmatis in Middlebrook 7H9 medium supplemented with 10% Middlebrook ADC enrichment and 2 ml/l glycerol). All other listed bacteria were grown in Müller-Hinton broth (0.2% beef infusion solids, 1.75% casein hydrolysate, 0.15% starch, pH 7.4). Cystobactamides and reference drugs were added directly to the cultures in sterile 96-well plates as duplicates and serial dilutions were prepared. Microorganisms were grown on a microplate shaker (750 rpm, 30-37° C., 18-48 h), except S. pneumonia, which was grown at non-shaking conditions (37° C., 5% CO2, 18 h). Growth inhibition was assessed by visual inspection and the MIC was defined as the lowest concentration of compound that inhibited visible growth.

For assay [2], the system named is E. coli strain WT III (marR Δ74 bp). Nature of the assay: Susceptibility of mutant E. coli strains, MIC. Conditions: Escherichia coli. Format: cell-based. On the procedure:
as §1, §2

Assay [3] deals with T1, H. sapiens topoisomerase II (Homo sapiens, UniProt P11388).
T1 construct: purchased Inspiralis (Norwich, UK)
The assay is described as follows: Topoisomerase II relaxation (inhibition) assay. As to conditions: for pIC50: H. sapiens Topoisomerase II inhibition assay, read-out: IC50. It is filed as biochemical. The protocol: The topo II reactions were titrated with varying concentrations of A-D and resolved by agarose gel electrophoresis. For IC50 determination the band intensity of the supercoiled plasmid was determined using Adobe Photoshop, plotted vs. [cystobactamide] and fitted using Hill's equation.
Following natural product concentrations were used in the assay:
Control reactions were: no enzyme and a standard reaction in presence of 5% (v/v) DMSO. All reaction samples were equilibrated for 10 minutes at room-temperature in the absence of DNA. Then the relaxed plasmid was added to start the reaction.
To determine IC50 values, the formation of supercoiled (gyrase) or relaxed (topoisomerase I, II IV) plasmid was quantified using Adobe Photoshop (Histogram mode). Plotting of these values versus the compound concentration yielded sigmoidal shaped curves, which were fitted using Hill's equation (Origin Pro 8.5). All determined IC50 values are the averages of three independent experiments.

Assay [4] deals with Mycobacterium smegmatis mc^2155 ATCC700084. Nature of the assay: Susceptibility testing, MIC microdilution. Format: cell-based. Conditions: Mycolicibacterium smegmatis, ATCC700084|MC^2155. On the technique in general: Broth dilution looks for growth in wells or tubes with falling amounts of substance.
The test system of assay [5] is Escherichia coli DSM-12242 (NAL^R). Nature of the assay: Susceptibility testing, MIC microdilution. Format: cell-based. As to conditions: Escherichia coli, DSM12242. In a few lines: (§3)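 Inoculum 10^4-10^6 cfu/mL; media: MHB pH 7.4 (E. coli), TSB pH 7.3 (E. faecalis), Myc pH 7.0 (C. albicans). Duplicate serial dilutions, shaking 750 rpm, 30-37° C., 18-48 h. Visual endpoint.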

The test system of assay [6] is Staphylococcus aureus ATCC29213. Nature of the assay: Susceptibility testing, MIC microdilution. Format: cell-based.
The test system of assay [7] is Escherichia coli ATCC35218. The assay is described as follows: Susceptibility testing, MIC microdilution. It is filed as cell-based. The method in brief: as §3
The subject of assay [8] is Burkholderia cenocepacia DSM-16553. The assay is described as follows: Susceptibility testing, MIC microdilution. Format: cell-based. As to conditions: Burkholderia cenocepacia, DSM16553.
The subject of assay [9] is Micrococcus luteus DSM-1790. Nature of the assay: Susceptibility testing, MIC microdilution. Conditions: Micrococcus luteus, DSM1790. It is filed as cell-based. In a few lines: as §3
The test system of assay [10] is Enterobacter aerogenes DSM-30053. Nature of the assay: Susceptibility testing, MIC microdilution. Format: cell-based. Conditions: Klebsiella aerogenes, DSM30053. In a few lines:
as §3

The subject of assay [11] is Candida albicans DSM-1665. The assay is described as follows: Susceptibility testing, MIC microdilution. It is filed as cell-based. Conditions: Candida albicans, DSM1665. The method in brief: as §3
Assay [12] relates to Escherichia coli DSM-26863 (tolC3). Nature of the assay: Susceptibility testing, MIC microdilution. Format: cell-based. As to conditions: Escherichia coli, DSM26863. The method in brief:
as §3

The test system of assay [13] is Streptococcus pneumoniae DSM-20566. Nature of the assay: Susceptibility testing, MIC microdilution. Conditions: Streptococcus pneumoniae, DSM20566. Format: cell-based.
The subject of assay [14] is Enterococcus faecalis ATCC29212. The assay is described as follows: Susceptibility testing, MIC microdilution. Format: cell-based. The method in brief:
as §3

For assay [15], the system named is Pseudomonas aeruginosa PA14. The assay is described as follows: Susceptibility testing, MIC microdilution. Format: cell-based.
For assay [16], the system named is Escherichia coli DSM-1116. Nature of the assay: Susceptibility testing, MIC microdilution. Format: cell-based. As to conditions: Escherichia coli, DSM1116. The method in brief: as §3
For the next assay, the system named is Bacillus subtilis DSM-10. The assay is described as follows: Susceptibility testing, MIC microdilution. Format: cell-based. As to conditions: Bacillus subtilis, DSM10.
Assay [17] relates to Escherichia coli ATCC25922. Nature of the assay: Susceptibility testing, MIC microdilution. It is filed as cell-based. In a few lines: as §3
In assay [18] the test system is Pseudomonas aeruginosa ATCC27853. The assay is described as follows: Susceptibility testing, MIC microdilution. Format: cell-based.
In assay [19] the test system is Acinetobacter baumannii DSM-30008. Nature of the assay: Susceptibility testing, MIC microdilution. It is filed as cell-based. Conditions: Acinetobacter baumannii, DSM30008. In a few lines: as §3
Assay [20] has as its system Chromobacterium violaceum DSM-30191. The assay is described as follows: Susceptibility testing, MIC microdilution. As to conditions: Chromobacterium violaceum, DSM30191. It is filed as cell-based.

T1 sequence (P11388 whole entry): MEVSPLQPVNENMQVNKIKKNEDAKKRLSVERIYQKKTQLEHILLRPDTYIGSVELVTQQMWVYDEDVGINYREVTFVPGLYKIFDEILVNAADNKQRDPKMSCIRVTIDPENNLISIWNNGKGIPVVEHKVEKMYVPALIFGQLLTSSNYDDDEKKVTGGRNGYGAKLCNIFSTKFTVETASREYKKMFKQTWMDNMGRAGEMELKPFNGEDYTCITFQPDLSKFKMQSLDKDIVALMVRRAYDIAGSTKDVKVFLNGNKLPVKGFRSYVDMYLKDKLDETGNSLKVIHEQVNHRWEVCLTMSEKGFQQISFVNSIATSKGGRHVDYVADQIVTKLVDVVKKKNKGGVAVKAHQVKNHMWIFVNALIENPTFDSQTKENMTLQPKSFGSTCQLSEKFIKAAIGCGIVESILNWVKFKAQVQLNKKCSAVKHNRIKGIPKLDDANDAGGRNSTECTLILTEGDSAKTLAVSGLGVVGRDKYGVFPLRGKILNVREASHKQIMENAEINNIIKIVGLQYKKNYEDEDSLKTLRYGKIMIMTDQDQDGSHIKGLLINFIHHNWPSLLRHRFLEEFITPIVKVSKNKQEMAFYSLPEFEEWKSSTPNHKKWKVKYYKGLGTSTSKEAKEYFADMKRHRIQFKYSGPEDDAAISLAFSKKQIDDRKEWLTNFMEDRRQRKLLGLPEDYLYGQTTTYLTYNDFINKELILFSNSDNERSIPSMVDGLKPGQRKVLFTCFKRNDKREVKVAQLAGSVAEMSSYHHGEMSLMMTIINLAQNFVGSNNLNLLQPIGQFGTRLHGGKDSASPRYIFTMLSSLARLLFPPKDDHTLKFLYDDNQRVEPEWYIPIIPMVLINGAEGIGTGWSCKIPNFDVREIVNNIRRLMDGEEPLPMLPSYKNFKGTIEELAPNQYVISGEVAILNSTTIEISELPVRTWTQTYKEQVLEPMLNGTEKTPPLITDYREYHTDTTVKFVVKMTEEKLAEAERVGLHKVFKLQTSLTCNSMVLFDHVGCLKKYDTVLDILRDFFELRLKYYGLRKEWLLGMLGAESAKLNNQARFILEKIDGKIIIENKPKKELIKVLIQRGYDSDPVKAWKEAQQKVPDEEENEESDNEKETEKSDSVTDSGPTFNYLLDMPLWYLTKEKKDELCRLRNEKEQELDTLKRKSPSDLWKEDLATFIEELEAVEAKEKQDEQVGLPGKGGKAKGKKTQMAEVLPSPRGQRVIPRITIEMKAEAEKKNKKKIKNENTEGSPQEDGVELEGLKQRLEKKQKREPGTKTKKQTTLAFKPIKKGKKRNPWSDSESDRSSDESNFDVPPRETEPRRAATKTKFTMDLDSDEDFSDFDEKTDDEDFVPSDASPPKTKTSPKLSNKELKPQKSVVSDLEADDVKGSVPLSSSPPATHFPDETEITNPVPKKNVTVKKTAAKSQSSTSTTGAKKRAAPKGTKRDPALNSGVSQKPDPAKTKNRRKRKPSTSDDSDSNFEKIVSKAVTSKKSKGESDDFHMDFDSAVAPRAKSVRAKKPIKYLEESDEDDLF

As a reminder, the MIC is the least concentration at which growth counts as inhibited. High values mean a need for much substance, low ones inhibition by little substance. In general, pIC50 refers to the IC50 on a negative log10 scale, so that one unit is a factor of ten. Regarding `CO[C@H](C(=O)Nc1ccc(C(=O)Nc2ccc(C(=O)Nc3ccc(C(=O)O)cc3OC(C)C)c(O)c2OC(C)C)cc1)[C@H](NC(=O)c1ccc(NC(=O)c2ccc([N+](=O)[O-])cc2)cc1)C(=O)O` [cystobactamide A, Cystobactamide A], the MIC in [1] is 0.5 µg/mL (≈ 0.543 µM); in assay [2] it was 14.7 µg/mL (≈ 16 µM); in [4], more than 59 µg/mL; in assay [5] it was 0.9 µg/mL (≈ 0.977 µM); in assay [6], 0.12 µg/mL (≈ 0.13 µM); in [7] it was 0.9 µg/mL (≈ 0.977 µM). Also, the MIC in [8] is more than 59 µg/mL; in assay [9], 0.06 µg/mL (≈ 0.0652 µM); in assay [10], more than 59 µg/mL; in [11], more than 59 µg/mL; in assay [12], 0.5 µg/mL (≈ 0.543 µM); in assay [13], 0.23 µg/mL (≈ 0.25 µM). The minimum inhibitory concentration (MIC) is 0.06 µg/mL (≈ 0.0652 µM) in assay [14]; more than 59 µg/mL in assay [15]; 0.9 µg/mL (≈ 0.977 µM) in [16]; 0.12 µg/mL (≈ 0.13 µM) with Bacillus subtilis DSM-10; 0.5 µg/mL (≈ 0.543 µM) in assay [17]; more than 59 µg/mL in assay [18]. Further, the MIC in [19] was 7.4 µg/mL (≈ 8.04 µM); in [20] it was more than 59 µg/mL. Further, the negative-log IC50 (pIC50) in assay [3] was less than 3.80. Also, the “concentration at which human topo II activity was inhibited (only the highest tested concentration)” value in assay [3] is 815 µM.

On to `CC(C)Oc1cc(C(=O)O)ccc1NC(=O)c1ccc(NC(=O)c2ccc(N)cc2)c(OC(C)C)c1O` [cystobactamide C, Cystobactamide C], for which the MIC in assay [1] is 8.1 µg/mL (≈ 16 µM); in assay [2], 65 µg/mL (≈ 128 µM); in assay [4], more than 65 µg/mL; in assay [5] it was 8.1 µg/mL (≈ 16 µM); in [6] it was 8.1 µg/mL (≈ 16 µM); in assay [7], 16.3 µg/mL (≈ 32.1 µM). Also, the MIC in assay [8] was more than 65 µg/mL; in assay [9], 4.1 µg/mL (≈ 8.08 µM); in assay [10], more than 33 µg/mL; in [11], more than 65 µg/mL; in assay [12], 4.1 µg/mL (≈ 8.08 µM); in assay [13] it was 8.1 µg/mL (≈ 16 µM). For the same compound, the MIC came out at 4.1 µg/mL (≈ 8.08 µM) in assay [14]; 65 µg/mL (≈ 128 µM) in assay [15]; 16.3 µg/mL (≈ 32.1 µM) in [16]; 2 µg/mL (≈ 3.94 µM) against Bacillus subtilis DSM-10; 8.1 µg/mL (≈ 16 µM) in assay [17]; 65 µg/mL (≈ 128 µM) in [18]. Further, the figures for the minimal inhibitory concentration (MIC) in [19] and in assay [20] were 32.5 µg/mL (≈ 64 µM) and 16.3 µg/mL (≈ 32.1 µM), respectively. Moreover, the pIC50 in assay [3] was less than 4.22. Moreover, the “concentration at which human topo II activity was inhibited (only the highest tested concentration)” value in assay [3] is 300 µM.
